{
  "source": "patent US8575094B2",
  "about": "“Use of type-B lantibiotic-based compounds having antimicrobial activity” (Novacta Biosystems Limited, priority 2007, dated 2013)",
  "key": {"Clostridium difficile": {"test_system": "Clostridium difficile", "test": "microbe, parasite or virus in culture", "assay_type": "cell-based", "details": "Clostridioides difficile", "text": "Compounds I to VII were screened against twelve clinical isolates of Clostridium difficile.\nIn addition, compounds L to LIII were screened against […] isolates of Clostridium difficile."}, "C. difficile spores": {"test_system": "C. difficile spores", "test": "Sporicidal activity: viable counts of C. difficile spores exposed to antibiotics", "assay_type": "cell-based", "text": "An agent capable of killing, or preventing the successful germination of C. difficile spores would therefore be of considerable interest. To determine the effects of type B lantibiotics on C. difficile spores, suspensions of spores were exposed to antibiotics ([…]) and aliquots were taken at appropriate time points. The spores in each aliquot were filtered off and plated out on to Brazier's agar."}, "[1]": {"test_system": "C. difficile strain VPI 10463", "assay_type": "in vivo", "details": "hamster, three times daily at 50 mg/kg/day, 5-day dosing period", "protocol": "The in vivo efficacy of two type B Lantibiotics in the treatment of C. difficile infections was evaluated in the standard animal model for CDAD: clindamycin-induced cecitis in hamster (FIG. 3). Four groups of six animals were dosed orally with approximately 10^7 cells of C. difficile strain VPI 10463 and 24 hours later with a subcutaneous dose of 10 mg/kg clindamycin phosphate."}, "E. coli": {"test_system": "E. coli", "test": "microbe, parasite or virus in culture", "details": "Escherichia coli"}, "E. faecium": {"test_system": "E. faecium", "test": "microbe, parasite or virus in culture", "details": "Enterococcus faecium"}, "E. faecalis": {"test_system": "E. faecalis", "test": "microbe, parasite or virus in culture", "details": "Enterococcus faecalis"}, "[2]": {"test_system": "Bifidobacterium adolescentis NCTC 11814", "test": "microbe, parasite or virus in culture", "details": "NCTC11814, read-out: Minimal Inhibitory Concentration (MIC)"}, "[3]": {"test_system": "Bifidobacterium longum NCTC 11818", "test": "microbe, parasite or virus in culture", "details": "NCTC11818, read-out: Minimal Inhibitory Concentration (MIC)"}, "[4]": {"test_system": "Bacteroides fragilis NCTC 9343", "test": "microbe, parasite or virus in culture", "details": "NCTC9343, read-out: Minimal Inhibitory Concentration (MIC)"}, "[5]": {"test_system": "Bacteroides thetaiotaomicron NCTC 10582", "test": "microbe, parasite or virus in culture", "details": "NCTC10582, read-out: Minimal Inhibitory Concentration (MIC)"}, "[6]": {"details": "VRE, read-out: Minimal Inhibitory Concentration (MIC)"}},
  "note": "Where two headings read alike, the source gives them in different places.",
  "data": [
    {"smiles": "CN[C@H](CC(C)C)C(=O)N[C@H]1C(=O)N[C@@H](CC(N)=O)C(=O)N[C@H]2C(=O)N[C@H]3C(=O)N[C@H](C(=O)N[C@H](C(=O)O)c4cc(O)cc(O)c4-c4cc3ccc4O)[C@H](O)c3ccc(c(Cl)c3)Oc3cc2cc(c3O[C@@H]2O[C@H](CO)[C@@H](O)[C@H](O)[C@H]2O[C@H]2C[C@](C)(N)[C@H](O)[C@H](C)O2)Oc2ccc(cc2Cl)[C@H]1O", "note": "[Vancomycin]", "values": [
      {"measurement": "MIC", "setting": "Clostridium difficile; read-out: Minimal Inhibitory Concentration (MIC), C. difficile strain 027C", "result": 1, "unit": "µg/mL"},
      {"measurement": "MIC", "setting": "Clostridium difficile; read-out: Minimal Inhibitory Concentration (MIC), C. difficile strain 27SM", "result": 1, "unit": "µg/mL"},
      {"measurement": "MIC", "setting": "Clostridium difficile; read-out: Minimal Inhibitory Concentration (MIC), C. difficile strain 19126", "result": 1, "unit": "µg/mL"},
      {"measurement": "MIC", "setting": "Clostridium difficile; read-out: Minimal Inhibitory Concentration (MIC), C. difficile strain 37779", "result": 2, "unit": "µg/mL"},
      {"measurement": "MIC", "setting": "Clostridium difficile; read-out: Minimal Inhibitory Concentration (MIC), C. difficile strain B32", "result": 1, "unit": "µg/mL"},
      {"measurement": "MIC", "setting": "Clostridium difficile; read-out: Minimal Inhibitory Concentration (MIC), C. difficile strain E4", "result": 1, "unit": "µg/mL"},
      {"measurement": "MIC", "setting": "Clostridium difficile; read-out: Minimal Inhibitory Concentration (MIC), C. difficile strain E16", "result": 0.5, "unit": "µg/mL"},
      {"measurement": "MIC", "setting": "Clostridium difficile; read-out: Minimal Inhibitory Concentration (MIC), C. difficile strain E101", "result": 0.5, "unit": "µg/mL"},
      {"measurement": "MIC", "setting": "Clostridium difficile; read-out: Minimal Inhibitory Concentration (MIC), C. difficile strain P24", "result": 0.5, "unit": "µg/mL"},
      {"measurement": "MIC", "setting": "Clostridium difficile; read-out: Minimal Inhibitory Concentration (MIC), C. difficile strain P49", "result": 1, "unit": "µg/mL"},
      {"measurement": "MIC", "setting": "Clostridium difficile; read-out: Minimal Inhibitory Concentration (MIC), C. difficile strain P59", "result": 1, "unit": "µg/mL"},
      {"measurement": "MIC", "setting": "Clostridium difficile; read-out: Minimal Inhibitory Concentration (MIC), C. difficile strain P62", "result": 1, "unit": "µg/mL"},
      {"measurement": "Effect on C. difficile spore viability / germination", "setting": "C. difficile spores; […]", "result": "no significant effect on spore viability"},
      {"measurement": "Viable counts of C. difficile spores", "setting": "C. difficile spores; antibiotic at 100 µg/ml, time 24 h", "result": 135},
      {"measurement": "Survival of infected animals", "setting": "[1]", "result": "survived for the duration of the entire 5-day dosing period"},
      {"measurement": "MIC", "setting": "E. coli; ATCC25922, read-out: Minimal Inhibitory Concentration (MIC)", "result": "> 64", "unit": "µg/mL"},
      {"measurement": "MIC", "setting": "E. coli; read-out: Minimal Inhibitory Concentration (MIC)", "result": "> 64", "unit": "µg/mL"},
      {"measurement": "MIC", "setting": "E. faecium; ATCC19579, read-out: Minimal Inhibitory Concentration (MIC)", "result": 0.5, "unit": "µg/mL"},
      {"measurement": "MIC", "setting": "E. faecium; [6]", "result": "> 64", "unit": "µg/mL"},
      {"measurement": "MIC", "setting": "E. faecalis; ATCC29212, read-out: Minimal Inhibitory Concentration (MIC)", "result": 4, "unit": "µg/mL"},
      {"measurement": "MIC", "setting": "E. faecalis; [6]", "result": "> 64", "unit": "µg/mL"},
      {"measurement": "MIC", "setting": "[2]", "result": 1, "unit": "µg/mL"},
      {"measurement": "MIC", "setting": "[3]", "result": "1 to 2", "unit": "µg/mL"},
      {"measurement": "MIC", "setting": "[4]", "result": 32, "unit": "µg/mL"},
      {"measurement": "MIC", "setting": "[5]", "result": 64, "unit": "µg/mL"}
    ]}
  ]
}
